Eleven compounds from PubChem BioAssay (NCI) can be followed below.

Holding throughout (assay): NCI anticancer screen, dose series, 48 h
Test [1] has as its system MOLT-4 leukemia.
The test system of test [2] is NCI-H23 lung.
The subject of test [3] is MDA-MB-231 breast.
In test [4] the test system is HOP-92 NSCLC.
Test [5] deals with A549 NSCLC.
In test [6] the test system is HL-60(TB) leukemia.
For test [7], the system named is PC-3 prostate.
Test [8] relates to DU-145 prostate.
In test [9] the test system is EKVX NSCLC.
For test [10], the system named is HOP-62 NSCLC.
The subject of test [11] is RPMI-8226 leukemia.
For test [12], the system named is SF-295 CNS.

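In this assay, cells in 96-well plates receive the compound at five concentrations for 48 hours. Endpoints are linearly interpolated between the surrounding concentrations. Definition used: TGI = concentration required for complete inhibition of growth.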

Turning to `CCCCCCCCCCCCCCCCP(=O)(O)OP(=O)(O)OCC1OC(n2cnc3c(N)ncnc32)C(O)C1O` (centres undefined), the TGI in [1] was 76.4 µM; in test [2] it was 68.2 µM; in test [3] it was above 100 µM; in test [4] it was 42 µM; in [5], above 100 µM; in [6], above 100 µM. Also, the TGI in test [7] was 52.9 µM; in test [8], above 100 µM; in test [9], above 100 µM; in test [10], 37.3 µM.

For `O=[N+]([O-])c1cccc2nccc(NCC(O)CO)c12` (centres undefined), the TGI in test [1] is above 80.6 µM; in [2], 43.1 µM; in [3], 45 µM; in [4] it was 53.8 µM; in test [5], 36.4 µM; in test [11] it was 61.2 µM. Also, the TGI in test [6] is 49.4 µM; in test [7], 38.5 µM; in test [8], 75.6 µM; in test [9] it was 27.6 µM; in test [12], 53.7 µM; in test [10], 33.6 µM.

For the compound `C[Si](C)(C)OC1c2[nH]c3ccccc3c2CN2C(=O)CCC12` (centres undefined), the TGI in test [1], in [3], in test [4], in test [5], in test [11] and in test [6] was above 100 µM throughout. Besides, the TGI in test [7], in [8], in test [9] and in test [10] was above 100 µM throughout.

Turning to `CC(C)CCC[C@@H](C)C1CCC2[C@@H]3CCC4CC(CCC=C(c5cc(Cl)c(OC(=O)c6ccccc6)c(C(=O)O)c5)c5cc(Cl)c(OC(=O)c6ccccc6)c(C(=O)O)c5)CC[C@]4(C)C3CC[C@@]21C` (some centres undefined), the TGI was above 100 µM in test [1]; above 100 µM in test [2]; 26.5 µM in test [3]; 73.3 µM in test [4]; above 100 µM in [5]; above 100 µM in test [11]. For the same compound, the TGI in [6], in test [7], in test [8], in [9] and in test [10] was above 100 µM each time.

For `Cc1ccc(S(=O)(=O)NNC(=S)Nc2cccc3ccccc23)cc1`, the TGI was above 100 µM in [1]; above 100 µM in test [2]; above 100 µM in test [3]; 86 µM in test [4]; above 100 µM in test [5]; above 100 µM in test [11]. The TGI in test [6], in test [7], in test [8], in [9], in [12] and in [10] was above 100 µM each time.

Turning to `CCCNC(=S)/N=C\c1c(O)c2ccccc2oc1=O`, the TGI in test [1], in [2], in [3], in test [4], in [5] and in test [6] was above 100 µM throughout. Further, the TGI in test [7], in test [8], in test [9], in test [12] and in test [10] was above 100 µM throughout.

With `Cc1cc2c(s1)C(=O)c1sccc1C2=O`, the TGI in test [1] was above 22.4 µM; in test [2] it was 0.36 µM; in [3], 2.89 µM; in test [4], 2.97 µM; in test [5], 2.03 µM; in test [11], above 25.5 µM. Besides, the TGI in [6] is above 100 µM; in test [7], 4.93 µM; in test [8], 3.23 µM; in test [9], 3.32 µM; in test [12], 1.15 µM.

`C=C1C(=O)C23CC1C[C@H](OC(C)=O)C2C1(C)C(OC(C)=O)C[C@H](O)C(C)(C)[C@H]1C(O)[C@@H]3OC(C)=O` (some centres undefined): the TGI in [1] is 8.64 µM; in test [2], 26.8 µM; in test [3] it was 18.6 µM; in [4], 24.8 µM; in test [5], 48.8 µM; in test [11] it was 16.4 µM. The TGI in [6] is 6.11 µM; in test [7] it was 26.5 µM; in test [8], 33.2 µM; in test [9] it was 29.1 µM; in test [12], above 57.6 µM; in [10], 33.8 µM.

Regarding `NC1=NC(OCC2(CO)CCC2)C=C(NCC2(CO)CCC2)N1` (centres undefined), the TGI in test [1], in test [2], in test [3], in test [4], in test [5] and in test [11] was above 100 µM each time. Further, the TGI in [6], in [7], in test [8], in test [9], in [12] and in test [10] was above 100 µM each time.

On to `O=C1CCC2SC1CCC2=O`, for which the TGI in [1], in [2], in test [3], in test [4], in test [5] and in [6] was above 100 µM each time. Moreover, the TGI in test [7], in [8], in [9], in test [12] and in [10] was above 100 µM each time.

Take `Cc1sc2nc3n(c(=O)c2c1C)N=C(c1ccc(Cl)cc1)CS3`: the TGI in test [1], in test [2], in test [3], in test [4], in test [5] and in test [11] was above 100 µM throughout. The TGI in test [6], in test [7], in [8], in test [9], in [12] and in test [10] was above 100 µM throughout.
